Reference: US20150044201A1, “CYCLON EXPRESSION FOR THE IDENTIFICATION AND CONTROL OF CANCER CELLS” (UNIVERSITE JOSEPH FOURIER - GRENOBLE, priority 2012, published 2015)
“Also recorded” adds a separate entry of the source.

Experiments:
Cyclon = conditions: K562 leukemic cells treated with Imatinib, public data GDS3043; cited from earlier work
Raji cells [1] = assay: Evaluation of Rituximab sensitivity, complement dependent cytotoxicity (CDC) assay; format: cell-based; conditions: sh Cyclon vs sh Ctrl cell lines (Raji, B593, SUDHL4); 1 h, 1 μg/ml Rituximab, 20% human serum
Experimental: (§1) Non-targeting or CYCLON targeting short hairpin (sh) RNA sequences were designed using the DSIR algorithm (http://biodev.cea.fr/DSIR/DSIR.html). Sequences, provided in Table 1, were cloned into the pLKO-1 lentiviral vector (Addgene) and packaged as described (Levy et al., 2010) or purchased from Santa Cruz. Cells were transduced with lentiviral particles at a MOI of 10. Stable cell lines were established under puromycin selection (1 μg/ml).
(§2) Cells were treated with 1 to 10 μg/ml Rituximab (Roche) or isotype control (Herceptin, Roche) for 24 h for direct apoptosis assays and for 1 h in presence of 20% human serum as a source of complement for CDC assays. Cell viability was evaluated by AnnexinV/IP (Beckman Coulter) or IP staining and flow cytometry analysis (LSIIR, BD). Specific cell death was calculated as (% of cell death with Rituximab−% cell death with Herceptin)/(1−% cell death with Herceptin), n=8 for each cell line.

Raji cells [2] = assay: Xenotransplantation assay, Raji shCtrl / shCyclon tumours treated with Rituximab; format: in vivo, nude mice; conditions: subcutaneous, daily intraperitoneal 200 μg Rituximab
Experimental: 3·10^6 Raji cells were injected subcutaneously into the flank of 6 to 8 week-old nude mice as described. Four mice were injected, each of them with shCtrl and shCyclon Raji cells into the right and left flanks respectively. When tumours were palpable (˜[…]), mice were given daily intraperitoneal injections of 200 μg Rituximab. Tumour volume was measured every 2 days using the formula I^2×L×0.52 (n=4 for each group).

Raji cells [3] = assay: Evaluation of Rituximab sensitivity, direct apoptosis assay; format: cell-based; conditions: sh Cyclon vs sh Ctrl cell lines (Raji, B593, SUDHL4); 24 h, 10 μg/ml Rituximab
Experimental: as §1, §2

Compound	Cyclon expression level (Cyclon)	sensitivity of cancer cells through complement dependent cytotoxicity (CDC specific cell death) (Raji cells [1])	tumour regression, day of treatment (Raji cells [2]; Cyclon-depleted tumours (Raji shCyclon)) [days]	tumour regression, day of treatment (Raji cells [2]; control tumours (Raji shCtrl)) [days]	sensitivity of cancer cells through direct apoptosis (specific cell death) (Raji cells [3])
Cc1ccc(NC(=O)c2ccc(CN3CCN(C)CC3)cc2)cc1Nc1nccc(-c2cccnc2)n1 [Imatinib]	down-regulation of Cyclon; also recorded: reduce Cyclon expression levels				
Rituximab		increased sensitivity	≤ 4	14	increased sensitivity
